For assay [1], the target named is T1, TRPC5 channel (Homo sapiens, UniProt Q9UL62).
T1 construct: expressed in transfected cells; host or cells: HEK293/TREx (Invitrogen), tetracycline-induced
T1 sequence (Q9UL62 1-973): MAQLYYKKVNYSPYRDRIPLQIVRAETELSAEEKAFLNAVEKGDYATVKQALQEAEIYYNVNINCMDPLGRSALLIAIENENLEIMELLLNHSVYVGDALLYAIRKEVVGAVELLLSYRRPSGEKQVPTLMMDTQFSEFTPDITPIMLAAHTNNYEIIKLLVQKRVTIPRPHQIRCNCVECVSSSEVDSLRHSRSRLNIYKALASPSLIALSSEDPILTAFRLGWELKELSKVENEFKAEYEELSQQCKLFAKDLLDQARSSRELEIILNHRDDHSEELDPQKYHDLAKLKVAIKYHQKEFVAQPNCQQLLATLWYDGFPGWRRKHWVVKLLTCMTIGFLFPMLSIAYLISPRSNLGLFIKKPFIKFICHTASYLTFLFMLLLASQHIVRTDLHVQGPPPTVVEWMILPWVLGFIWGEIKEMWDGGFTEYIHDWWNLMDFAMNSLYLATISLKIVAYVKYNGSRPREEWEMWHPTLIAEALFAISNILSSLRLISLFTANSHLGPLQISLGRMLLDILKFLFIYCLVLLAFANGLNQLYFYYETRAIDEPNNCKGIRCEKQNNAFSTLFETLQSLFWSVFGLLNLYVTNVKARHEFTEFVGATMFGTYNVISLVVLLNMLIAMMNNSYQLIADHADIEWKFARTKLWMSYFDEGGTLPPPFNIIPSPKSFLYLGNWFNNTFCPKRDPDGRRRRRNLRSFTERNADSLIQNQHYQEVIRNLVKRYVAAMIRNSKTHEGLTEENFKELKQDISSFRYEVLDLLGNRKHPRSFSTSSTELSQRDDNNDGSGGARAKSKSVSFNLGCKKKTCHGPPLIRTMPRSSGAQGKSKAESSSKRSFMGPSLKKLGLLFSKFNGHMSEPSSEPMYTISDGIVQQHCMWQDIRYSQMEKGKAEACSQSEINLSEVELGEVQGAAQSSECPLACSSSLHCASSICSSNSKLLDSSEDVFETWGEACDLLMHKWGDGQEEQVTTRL
In words: High throughput screening assay: Fluo4 cell-based fluorescence Ca2+ influx assay. The conditions noted are these: HEK293/TREx cells inducibly expressing TRPC5, inhibition of [Ca2+]i rise after high-Ca2+ Ringer (14 mM Ca2+), triplicate, 0.027-20 μM. The source says: The assay depended on detection of the rise in intracellular Ca2+ concentration ([Ca2+]i) following channel activation in cells inducibly expressing the TRPC5 channel. Ca2+ rise was quantified with the use of fluorescent Ca2+ indicators that were loaded into cells and thereafter indicated the [Ca2+]i Ca2+ influx followed activation of the TRPC5 channel. Compounds inhibiting the [Ca2+]i rise were considered hits for further investigation.
The commercially available HEK293/TREx line (Invitrogen) was stably transfected with a TRPC5 construct and screened by conventional calcium imaging to find clones with TRPC5 expression following stimulation with 1 μg/ml tetracycline. These cells were maintained in the growth medium recommended by the manufacturer supplemented with 100 μg/ml hygromycin to promote retention of the TRPC5 construct. After growing to near confluency, cells were plated at a density of ˜35,000 cells/well in 384 well CellBind plates (Corning) in the presence of 1 μg/ml tetracycline, and allowed to grow for 20-30 hrs. A nearly confluent monolayer resulted. Cells were then loaded with Ca2+ dye: Fura-2/AM or Fluo4/AM was added to the wells to a final concentration of 4 μM or 0.5 μM, respectively, and incubated for 80 min or 60 min, respectively, at room temperature. Supernatant was then removed from the cells by inverting plates with a sharp flick, and 25 μl Hank's Balanced Salt Solution (HBSS; 0.185 g/l D-glucose, 0.9767 g/l MgSO4 (anhydrous), 0.4 g/l KCl, 0.06 g/l KH2PO4 (anhydrous), 0.35 g/l NaHCO3, 8.0 g/l NaCl, and 0.04788 g/l Na2HPO4 (anhydrous); pH 7.4) was then added to each well. Following ˜0.5 hour for recovery from loading, cells were assayed using the Hamamatsu FDSS 6000 system, which permitted illumination alternately at 340 nm and 380 nm for Fura-2 experiments, or at 485 nm for Fluo4 experiments. Frames were acquired at a rate of 0.2 Hz. During the assay, the plates were continuously vortexed, with pipette mixing of wells following addition of each reagent. For the screening assay, 26 μl of a diluted compound stock (at 50 μM) was added to each well for 2 minutes following the collection of a short (4 frame) baseline. 13 μl 62 mM high-Ca2+ Ringer solution (4.17 ml of normal ringer (with 2 mM Ca2+) plus 5.83 ml of isotonic calcium ringer (105 mM Ca2+; in this ringer all sodium has been replaced with calcium)) was then added to each well, achieving a final concentration of 14 mM Ca2+ and 10 μM test compound. Data was collected for ˜3 minutes following addition of high Ca2+ Ringer, where the fluorescent intensity (for Fluo4) and the F340/F380 ratio (for Fura-2) were proportional to the [Ca2+]i Negative controls consisted of HEK293/TREx TRPC5 cells exposed to high Ca2+ solution, but no compound. Positive control conditions consisted of addition of 2-APB, a promiscuous blocker of TRPC5 and other channels, to columns 23 and 24 of the plates, to a final concentration of 200 μM. These controls defined a screening window, and “hits” were defined as those compounds inhibiting the fluorescence response by at least 40%. IC50 values were determined for compounds defined as “hits.” The Fluo4 cell-based fluorescence assay was used to determine the intracellular Ca2+ concentration in the presence of varying drug concentration. Final concentrations of compounds tested were 20 μM, 6.667 μM, 2.222 μM, 0.741 μM, 0.247 μM, 0.082 μM, and 0.027 μM. Compounds were tested in triplicate at all concentrations. Standard software was used to fit IC50 curves. A value of NF was assigned when no IC50 curves could not be fit.
Additionally or alternatively, efficacy can be represented as % inhibition in the presence (of a given concentration of compound) versus the absence of compound or in comparison to a control compound. For example, efficacy can be represented as % inhibition of ion flux in the presence versus the absence of compound.

The target in assay [2] is T1, TRPC5 channel. In words: Whole-cell patch clamp experiments on TRPC5 current. Type of assay: cell-based. The conditions noted are these: TRPC5-expressing HEK293 TREx cells, current activated by LaCl3, holding potential −40 mV, currents quantified at −80 mV and +80 mV. The source says:
Patch clamp experiments permit the detection of currents through the TRPC5 channel in the cell line described above. In normal whole-cell patch clamp recordings, a glass electrode is brought into contact with a single cell and a high-resistance (gigaohm) seal is established with the cell membrane. The membrane is then ruptured to achieve the whole-cell configuration, permitting control of the voltage of the cell membrane and measurement of currents flowing across the membrane using the amplifier attached to the electrode and resulting in the replacement of cytoplasm with the pipette solution. A perfusion system permits control of the extracellular solution, including the addition of blockers and activators of the current. The current can be activated by including 1.4 μM free Ca^2+ in the pipette (intracellular) solution, and 80 μM LaCl3 in the extracellular solution.
TRPC5 cells were induced 20-48 hours, removed from growth plates, and replated at low density (to attain good single-cell physical separation) on glass coverslips for measurement. In some cases, cells were grown in low density overnight on glass coverslips. […] Currents elicited were quantified at −80 mV and +80 mV. The internal solution consisted of 140 mM cesium aspartate, 10 mM HEDTA, 2 mM CaCl2, 2.27 mM MgCl2 and 10 mM HEPES, pH 7.2, with 1,400 nM calculated free Ca^2+. […]
Background: The patch-clamp technique gives a direct electrical read-out from membranes.

As a reminder, the IC50 is the concentration needed to halve the response being measured. For the compound `CC(C)c1ccccc1-c1cc2c(=O)n(CCCO)c(=O)n(C)c2cn1` [Compound 46, 3-(3-hydroxypropyl)-6-(2-isopropylphenyl)-1-methylpyrido[3,4-d]pyrimidine-2,4(1H,3H)-dione], the IC50 against TRPC5 channel [1] is 4240 nM.
In the case of `Cn1c(=O)n(CCCO)c(=O)c2c(Cc3ccc(Cl)cc3)c(-c3ccc(Cl)cc3)ncc21` [Compound 47, 5-(4-chlorobenzyl)-6-(4-chlorophenyl)-3-(3-hydroxypropyl)-1-methylpyrido[3,4-d]pyrimidine-2,4(1H,3H)-dione], on TRPC5 channel [1], the midpoint of inhibition, the IC50, lay at 1610 nM.
The compound `CC(C)CCc1c(-c2ccc(Cl)cc2)ncc2c1c(=O)n(CCCO)c(=O)n2C` [Compound 48, 6-(4-chlorophenyl)-3-(3-hydroxypropyl)-5-isopentyl-1-methylpyrido[3,4-d]pyrimidine-2,4(1H,3H)-dione] registered an IC50 on TRPC5 channel [1] of 1600 nM.
On to `CC(C)c1ccccc1-c1ncc2c(c1Cc1ccc(Cl)cc1)c(=O)n(CCCO)c(=O)n2C` [Compound 49, 5-(4-chlorobenzyl)-3-(3-hydroxypropyl)-6-(2-isopropylphenyl)-1-methylpyrido[3,4-d]pyrimidine-2,4(1H,3H)-dione], for which the figures for the half-maximal inhibitory concentration (IC50) against TRPC5 channel [2] and at TRPC5 channel [1] were 38.8 nM and 2360 nM, respectively.
`CC(C)CCc1c(-c2ccccc2C(C)C)ncc2c1c(=O)n(CCCO)c(=O)n2C` [Compound 50, 3-(3-hydroxypropyl)-5-isopentyl-6-(2-isopropylphenyl)-1-methylpyrido[3,4-d]pyrimidine-2,4(1H,3H)-dione] yielded an IC50 at TRPC5 channel [1] of 9800 nM.
On TRPC5 channel [1], `Cn1c(=O)n(CCCO)c(=O)c2c(Cc3ccc(Cl)cc3)c(Oc3cccc(Cl)c3)ncc21` [Compound 51, 5-(4-chlorobenzyl)-6-(3-chlorophenoxy)-3-(3-hydroxypropyl)-1-methylpyrido[3,4-d]pyrimidine-2,4(1H,3H)-dione] returned a half-maximal inhibitory concentration (IC50) of 8840 nM.
The same measure, in the same setting: to `CC(C)CCc1c(-c2cccc(Cl)c2)ncc2c1c(=O)n(CCCO)c(=O)n2C` [Compound 52, 6-(3-chlorophenyl)-3-(3-hydroxypropyl)-5-isopentyl-1-methylpyrido[3,4-d]pyrimidine-2,4(1H,3H)-dione] belongs 4180 nM; to `Cn1c(=O)n(CCCO)c(=O)c2c(Cc3ccccc3)c(-c3cccc(OC(F)(F)F)c3)ncc21` [Compound 53, 5-benzyl-3-(3-hydroxypropyl)-1-methyl-6-(3-(trifluoromethoxy)phenyl)pyrido[3,4-d]pyrimidine-2,4(1H,3H)-dione], 195 nM.
